Assay [1] concerns the target T1, human NTPDase2 (Homo sapiens, UniProt Q9Y5L3).
T1 sequence (Q9Y5L3 1-495): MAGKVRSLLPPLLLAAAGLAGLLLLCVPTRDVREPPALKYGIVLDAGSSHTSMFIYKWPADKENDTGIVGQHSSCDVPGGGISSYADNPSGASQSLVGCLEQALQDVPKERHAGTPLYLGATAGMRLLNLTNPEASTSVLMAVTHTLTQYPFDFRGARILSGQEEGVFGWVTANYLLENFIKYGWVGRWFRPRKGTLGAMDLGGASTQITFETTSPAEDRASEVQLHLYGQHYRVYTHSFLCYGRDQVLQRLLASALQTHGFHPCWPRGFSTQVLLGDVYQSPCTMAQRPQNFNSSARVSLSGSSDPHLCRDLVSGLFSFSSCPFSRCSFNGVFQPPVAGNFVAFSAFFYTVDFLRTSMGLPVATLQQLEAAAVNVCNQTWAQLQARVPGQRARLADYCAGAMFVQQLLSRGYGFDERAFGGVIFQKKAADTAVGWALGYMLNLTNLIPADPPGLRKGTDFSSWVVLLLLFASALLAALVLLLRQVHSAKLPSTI
The assay can be described thus: NTPDase inhibition assay by capillary electrophoresis (CE), NTPDase2. The note with it: for Ki: human NTPDase2, CE method, ATP 320 μM, Km 70 μM, read-out: NTPDase2 Ki [μM] ± SEM. In kind it is biochemical.

For assay [2], the target named is rP2Y6 (Rattus norvegicus, UniProt Q63371). In words: Inhibition of UDP binding at rP2Y6. The note with it: read-out: rP2Y6 % inhibition of UDP binding at 100 μM, n = 3, mean ± SEM.
Sequence of rP2Y6 (Q63371 whole entry): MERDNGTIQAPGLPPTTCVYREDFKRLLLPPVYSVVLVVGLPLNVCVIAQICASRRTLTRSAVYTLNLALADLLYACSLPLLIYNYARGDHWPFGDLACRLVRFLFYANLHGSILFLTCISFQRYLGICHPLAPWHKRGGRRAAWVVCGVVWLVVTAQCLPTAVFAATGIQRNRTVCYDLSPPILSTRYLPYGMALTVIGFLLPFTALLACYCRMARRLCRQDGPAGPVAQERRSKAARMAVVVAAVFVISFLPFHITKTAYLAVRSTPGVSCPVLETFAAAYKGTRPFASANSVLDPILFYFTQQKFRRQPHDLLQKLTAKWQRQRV
Assay [3] addresses T2, human NTPDase3 (Homo sapiens, UniProt O75355).
T2 sequence (O75355 1-529): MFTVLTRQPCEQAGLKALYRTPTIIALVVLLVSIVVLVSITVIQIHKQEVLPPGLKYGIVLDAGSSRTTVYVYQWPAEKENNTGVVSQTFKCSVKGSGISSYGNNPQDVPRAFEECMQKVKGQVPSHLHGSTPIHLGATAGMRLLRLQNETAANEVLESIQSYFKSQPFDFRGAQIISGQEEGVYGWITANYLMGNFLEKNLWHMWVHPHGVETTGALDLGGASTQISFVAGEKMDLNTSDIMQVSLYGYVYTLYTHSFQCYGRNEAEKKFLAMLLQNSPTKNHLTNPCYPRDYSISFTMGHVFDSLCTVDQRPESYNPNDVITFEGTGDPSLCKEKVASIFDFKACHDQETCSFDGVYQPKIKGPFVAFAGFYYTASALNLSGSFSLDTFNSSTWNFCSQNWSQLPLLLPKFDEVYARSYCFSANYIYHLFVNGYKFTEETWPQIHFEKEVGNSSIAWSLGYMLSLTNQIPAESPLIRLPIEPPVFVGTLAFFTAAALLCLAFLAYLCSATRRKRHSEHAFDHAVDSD
The assay can be described thus: NTPDase inhibition assay by capillary electrophoresis (CE), NTPDase3. In kind it is biochemical. The note with it: ATP 320 μM; for inhibition at 1000 µM: 1 mM compound; for Ki: CE method, Km 75 μM, read-out: NTPDase3 Ki [μM] ± SEM. Here is the method: The applied enzyme inhibition assay has been described (Iqbal J, Vollmayer P, Braun N, Zimmermann H, Müller C E. A capillary electrophoresis method for the characterization of ecto-nucleoside triphosphate diphosphohydrolases (NTPDases) and the analysis of inhibitors by in-capillary enzymatic microreaction. Purinergic Signalling 2005, 1, 349-358).
A. CE instrumentation: All experiments were carried out using a P/ACE MDQ capillary electrophoresis system (Beckman Instruments, Fullerton, Calif., USA) equipped with a UV detection system coupled with a diode-array detector (DAD). Data collection and peak area analysis were performed by the P/ACE MDQ software 32 KARAT obtained from Beckman Coulter. The capillary temperature was kept constant at 25° C. The temperature of the sample storing unit was also adjusted to 25° C. The electrophoretic separations were carried out using an eCAP polyacrylamide-coated fused-silica capillary [(30 cm (20 cm effective length)×50 μm internal diameter (I.D.)×360 μm outside diameter (O.D.), obtained from CS-Chromatographie (Langerwehe, Germany)]. The separation was performed using an applied current of −60 μA and a data acquisition rate of 8 Hz. Analytes were detected using direct UV absorbance at 210 nm. The capillary was conditioned by rinsing with water for 2 min and subsequently with buffer (phosphate 50 mM, pH 6.5) for 1 min. Sample injections were made at the cathodic side of the capillary.
B. NTPDase inhibition assay by capillary electrophoresis: Enzyme inhibition assays were carried out at 37° C. in a final volume of 100 μl. The reaction mixture contained 320 μM of ATP (substrate) in reaction buffer. The reaction buffer contained 140 mM NaCl, 5 mM KCl, 1 mM MgCl2, 2 mM CaCl2, and 10 mM Hepes, pH 7.4.
Different concentrations of inhibitors dissolved in DMSO or water (10 μl) were added and the reaction was initiated by the addition of 10 μl of the appropriately diluted recombinant or native human or rat NTPDase enzyme. […] The mixture (final volume 100 μl) was incubated for 15 min and terminated by heating at 99° C. for 4 min. Aliquots of the reaction mixture (50 μl) were then transferred to mini-CE vials and injected into the CE instrument under the conditions described above. 20 μM of UMP was used as internal standard. Inhibition of NTPDase was tested over a range of 6 to 8 concentrations of test compound spanning 3 orders of magnitude to determine K1 values. Each analysis was repeated two times (in triplicates) in two separate experiments. The Cheng-Prusoff equation was used to calculate the K1 values from the IC50 values, determined by the non-linear curve fitting program PRISM® 3.0 (GraphPad, San Diego, Calif., USA). In table 1K, values of selected compounds as inhibitors of human NTPDases are given.

Assay [4] concerns the target T3, human NTPDase1 (Homo sapiens, UniProt P49961).
T3 sequence (P49961 1-510): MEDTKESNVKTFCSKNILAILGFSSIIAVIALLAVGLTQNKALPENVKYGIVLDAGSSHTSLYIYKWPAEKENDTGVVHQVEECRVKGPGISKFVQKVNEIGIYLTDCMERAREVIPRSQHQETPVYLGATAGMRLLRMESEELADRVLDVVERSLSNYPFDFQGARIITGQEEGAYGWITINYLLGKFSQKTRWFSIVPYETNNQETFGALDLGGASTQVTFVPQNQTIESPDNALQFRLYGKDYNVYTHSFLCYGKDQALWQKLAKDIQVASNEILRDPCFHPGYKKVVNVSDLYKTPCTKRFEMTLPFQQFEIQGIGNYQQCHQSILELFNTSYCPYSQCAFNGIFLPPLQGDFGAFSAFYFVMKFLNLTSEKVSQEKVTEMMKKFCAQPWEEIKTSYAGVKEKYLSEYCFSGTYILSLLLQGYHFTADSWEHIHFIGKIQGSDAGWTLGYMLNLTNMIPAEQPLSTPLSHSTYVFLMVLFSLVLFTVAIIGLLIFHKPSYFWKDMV
The assay can be described thus: NTPDase inhibition assay by capillary electrophoresis (CE), NTPDase1. In kind it is biochemical. As to conditions: ATP 320 μM; for Ki: CE method, Km 17 μM, read-out: NTPDase1 Ki [μM] ± SEM. In a few lines:
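Recombinant or native human NTPDase was run with 320 μM ATP in Hepes buffer pH 7.4 (NaCl, KCl, MgCl2, CaCl2) at 37° C for 15 min, stopped by heating at 99° C. Products were quantified by capillary electrophoresis (UV 210 nm, UMP internal standard). IC50 from 6-8 concentrations was converted to Ki by Cheng-Prusoff.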

Here are results for two compounds from patent publication US20100204182A1, “ECTONUCLEOTIDASE INHIBITORS” (RHEINISCHE FRIEDRICH-WILHELMS-UNIVERSITAT BONN, priority 2006, published 2010).

One may read the Ki as the equilibrium dissociation constant of an inhibitor or competing ligand from its target. As usually defined, the inhibition is the drop in the measured response relative to a control, in per cent. For the compound `CCOP(=O)(Cc1ccc(NC(=O)CCNC(=O)[C@H]2O[C@@H](n3ccc(=O)[nH]c3=O)C(O)C2O)cc1)OCC` (stereo in doubt) [Compound 3, 4-[3-((2S,3R,4S,5R)-5-(2,4-Dioxo-3,4-dihydropyrimidin-1(2H)-yl)-3,4-di-hydroxy-tetrahydrofurane-2-carboxamido)propaneamido]benzylphosphonic acid diethylester], the figures for the Ki in assay [1], in assay [3] and in assay [4] were 173 ± 17 µM, above 200 µM and 55.2 ± 2.6 µM, respectively. In assay [2], the inhibition at 100 µM is 7 ± 7%. Moreover, the inhibition at 1000 µM in assay [3] worked out at 40%.
Regarding `CCOP(=O)(Cc1ccc(NC(=O)CNC(=O)[C@H]2O[C@@H](n3ccc(=O)[nH]c3=O)C(O)C2O)cc1)OCC` (stereo in doubt) [Compound 2, 4-[2-((2S,3R,4S,5R)-5-(2,4-Dioxo-3,4-dihydropyrimidin-1(2H)-yl)-3,4-dihydroxy-tetrahydrofurane-2-carboxamido)ethaneamido]benzylphosphonic acid diethylester], the Ki in assay [1] is 8.2 ± 2.1 µM; in assay [3], above 200 µM; in assay [4], above 50 µM. The “inhibitor of NTPDase (in words)” value in assay [1] (in words, compare Tab. 1) is on record as “excellent inhibitor”. Moreover, the inhibition at 100 µM in assay [2] is -10 ± 10%. For the same compound, the inhibition at 1000 µM stood at 0% in assay [3] and 50% in assay [4] (1 mM compound).
